We go through two molecules from patent US9221825B2, “Pyrazolopyrimidinone compound and imidazo triazone compound for treating erectile dysfunction” (Zhejiang Dade Pharmaceutical Group Co., Ltd., priority 2011, dated 2015).

This assay relates to adult sexual mature male Sprague-Dawley rats. Put plainly: Efficacy test of the drug for anti-Erectile Dysfunction (copulation test). Conditions: for Catching times / Latent period of catch behavior / Riding times: intragastric administration. The class given is in vivo, rat.
[1] abbreviates: animal experiments, in comparison with Sildenafil.
The mark [2] stands for this setting: male Sprague-Dawley rats, dosage 2.2 mg/kg bw.
Setting [3] is: male Sprague-Dawley rats, dosage 4.4 mg/kg bw.
[4] abbreviates: male Sprague-Dawley rats, dosage 8.8 mg/kg bw.

On to `CCCc1nn(C)c2c(=O)[nH]c(-c3cc(S(=O)(=O)N4CCCN(C)CC4)ccc3OCC)nc12.O=C(O)CC(O)(CC(=O)O)C(=O)O` [ED9001, 5-[2-ethoxy-5-(4-methyl-1-homopiperazinylsulfonyl)]-phenyl-1-methyl-3-n-propyl-1,6-dihydro-7H-pyrazolo[4,3-d]pyrimidine-7-one citrate], for which, under setting [1], the Effective drug duration result was “longer” and the Onset time result is reported as “shorter”. Also, under “male Sprague-Dawley rats, P<0.05”, the “Effect on catching times in comparison with the solution control group” value was “distinct effect on improving catching times”. Further, under setting [2], the Catching times came out at 31 ± 9 times, the “Latent period of catch behavior” value came out at 12.1 ± 3.6 s and the Riding times is 24 ± 7 times. Under setting [3], the Catching times is listed as 26 ± 9 times, the “Latent period of catch behavior” value was 14.4 ± 7.5 s and the Riding times is reported as 21 ± 7 times. Moreover, under setting [4], the Catching times was found to be 32 ± 9 times, the “Latent period of catch behavior” value is recorded as 14.2 ± 4.9 s and the Riding times was found to be 27 ± 10 times.
As for `CCCc1nn(C)c2c(=O)[nH]c(-c3cc(S(=O)(=O)N4CCN(C)CC4)ccc3OCC)nc12` [Sildenafil, reference compound], under setting [3], the Catching times is on record as 27 ± 6 times, the “Latent period of catch behavior” value was determined as 12.5 ± 6.5 s and the Riding times was 24 ± 7 times.
